In US20220315771A1, “REVERSIBLE CULTURAL RELIC PROTECTION MATERIAL WITH FUNCTION OF INHIBITING GROWTH OF BACTERIA AND MOLD” (SHANGHAI UNIVERSITY, priority 2019, published 2022):

Test system: E. coli
Assay: Bacterial resistance test: solid 1 mm cube placed in E. coli solution, growth followed by OD600
Settings: E. coli solution with starting OD600 0.45

Measured: OD600 value

Description: B) The block was putted into an E. coli solution with an OD600 value of 0.45, and the growth of the bacteria was observed.
The antibacterial properties of bacterial in the experimental groups 1 to 5 and the control group were tested, and the OD600 values represent the growth of bacterial cells.

CCc1occc(=O)c1O [experimental group 3, ethyl maltol]
lowest: at 12 hours, control group 0.55 | at 24 hours, control group 0.48 | at 2 days, control group 0.61 | at 3 days, control group 0.47
